Active and inactive are the calls of the source. No cut-off for these calls is given here.
Experiments:
Cortex [1] = details: mouse, in vivo, iv, 0.5 h
Description: Biodistribution in ICR mouse cortex at 1.1 MBq, iv after 30 mins postinjection

in vitro = details: human, serum
Description: Metabolic stability in human serum assessed as compound remaining at 3.7 MBq after 120 mins by radio-TLC

Blood [2] = details: mouse, in vivo, iv, 1 h
Description: Biodistribution in ICR mouse blood at 1.1 MBq, iv after 60 mins postinjection

Cortex [3] = details: mouse, in vivo, iv, 1 h
Description: Biodistribution in ICR mouse cortex at 1.1 MBq, iv after 60 mins postinjection

Cerebellum [4] = details: mouse, in vivo, iv, 2 min
Description: Biodistribution in ICR mouse cerebellum at 1.1 MBq, iv after 2 mins postinjection

Brain [5] = details: mouse, in vivo, iv, 1 h
Description: Biodistribution in remaining brain of ICR mouse at 1.1 MBq, iv after 60 mins postinjection

Blood [6] = details: mouse, in vivo, iv, 0.5 h
Description: Biodistribution in ICR mouse blood at 1.1 MBq, iv after 30 mins postinjection

Blood [7] = details: mouse, in vivo, iv, 2 min
Description: Biodistribution in ICR mouse blood at 1.1 MBq, iv after 2 mins postinjection

Cerebellum [8] = details: mouse, in vivo, iv, 1 h
Description: Biodistribution in ICR mouse cerebellum at 1.1 MBq, iv after 60 mins postinjection

Cerebellum [9] = details: mouse, in vivo, iv, 0.5 h
Description: Biodistribution in ICR mouse cerebellum at 1.1 MBq, iv after 30 mins postinjection

Brain [10] = details: mouse, in vivo, iv, 0.5 h
Description: Biodistribution in remaining brain of ICR mouse at 1.1 MBq, iv after 30 mins postinjection

Brain [11] = details: mouse, in vivo, iv, 2 min
Description: Biodistribution in remaining brain of ICR mouse at 1.1 MBq, iv after 2 mins postinjection

Cortex [12] = details: mouse, in vivo, iv, 2 min
Description: Biodistribution in ICR mouse cortex at 1.1 MBq, iv after 2 mins postinjection

Mus musculus [13] = organism: Mus musculus; assay: Binding affinity to beta-amyloid plaque in APPswe/PS1deltaE9 double transgenic mouse brain after 3 mins by Thioflavin-S fluorescence-based confocal microscopy; assay type: tissue-based
[14] = molecular target: T1, Amyloid-beta precursor protein (Homo sapiens, UniProt P05067); assay: biochemical
T1 sequence (P05067 whole entry): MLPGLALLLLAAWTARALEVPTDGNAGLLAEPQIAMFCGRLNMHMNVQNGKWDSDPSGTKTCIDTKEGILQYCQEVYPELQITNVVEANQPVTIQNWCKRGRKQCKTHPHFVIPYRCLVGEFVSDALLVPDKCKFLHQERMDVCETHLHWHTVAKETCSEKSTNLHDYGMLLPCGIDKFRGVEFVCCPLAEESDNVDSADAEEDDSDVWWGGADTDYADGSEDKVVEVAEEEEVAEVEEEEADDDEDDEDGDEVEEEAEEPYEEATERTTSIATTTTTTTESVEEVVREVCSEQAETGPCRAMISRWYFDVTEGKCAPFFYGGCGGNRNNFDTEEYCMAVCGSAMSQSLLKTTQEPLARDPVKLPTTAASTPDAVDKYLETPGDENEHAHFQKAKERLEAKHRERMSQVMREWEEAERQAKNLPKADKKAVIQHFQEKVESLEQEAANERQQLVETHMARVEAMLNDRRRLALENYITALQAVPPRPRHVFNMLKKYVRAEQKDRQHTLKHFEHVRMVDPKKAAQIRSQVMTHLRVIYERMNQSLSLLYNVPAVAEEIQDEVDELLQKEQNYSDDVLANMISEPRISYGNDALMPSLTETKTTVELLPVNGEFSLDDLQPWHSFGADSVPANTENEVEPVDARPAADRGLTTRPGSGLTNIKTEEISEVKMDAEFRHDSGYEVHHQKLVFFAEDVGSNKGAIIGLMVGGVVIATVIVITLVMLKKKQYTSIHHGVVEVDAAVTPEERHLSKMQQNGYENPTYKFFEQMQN
Description: Displacement of [3H]PIB from amyloid beta (1 to 42) aggregates in Alzheimer's disease-human brain homogenate after 3 hrs by gamma counting

Mus musculus [15] = organism: Mus musculus; assay: Binding affinity to beta-amyloid plaque in wild type mouse brain after 3 mins by Thioflavin-S fluorescence-based confocal microscopy; assay type: tissue-based
physchem = details: octanol/PBS
Description: Octanol-PBS partition coefficient, log P of the compound by gamma counter

[16] = molecular target: T1, Amyloid-beta precursor protein; assay: biochemical; remark: listed apart in the source
Description: Displacement of [125I]TZDM from amyloid beta (1 to 42) aggregates in Alzheimer's disease-human brain homogenate after 3 hrs by gamma counting

Drug uptake (Cortex [1])	remaining at 2 h, 3.7 MBq (in vitro)	Drug uptake (Blood [2])	Drug uptake (Cortex [3])	Drug uptake (Cerebellum [4])	Drug uptake (Brain [5])	Drug uptake (Blood [6])	Drug uptake (Blood [7])	Drug uptake (Cerebellum [8])	Drug uptake (Cerebellum [9])	Drug uptake (Brain [10])	Drug uptake (Brain [11])	Drug uptake (Cortex [12])	Activity (Mus musculus [13])	Ki [14]	Activity (Mus musculus [15])	logP (physchem)	Ki [16]	Structure (SMILES)
1.2 % ID/g	90%	1.11 % ID/g	0.73 % ID/g	6.24 % ID/g	1.32 % ID/g	1.13 % ID/g	2.08 % ID/g	0.98 % ID/g	1.38 % ID/g	1.91 % ID/g	6.3 % ID/g	6.62 % ID/g	–	–	–	–	–	CNc1ccc(-c2nc3ccc([18F])cc3s2)cc1
–	–	–	–	–	–	–	–	–	–	–	–	–	Active	0.2 nM	Active	3.2	5.5 nM	CNc1ccc(-c2nc3ccc(F)cc3s2)cc1
2.17 % ID/g	90%	1.02 % ID/g	1.61 % ID/g	4.45 % ID/g	2.01 % ID/g	1.04 % ID/g	1.55 % ID/g	1.16 % ID/g	2.03 % ID/g	2.8 % ID/g	4.26 % ID/g	4.39 % ID/g	–	–	–	–	–	CN(C)c1ccc(-c2nc3ccc([18F])cc3s2)cc1
–	–	–	–	–	–	–	–	–	–	–	–	–	–	0.3 nM	–	3.6	5.9 nM	CN(C)c1ccc(-c2nc3ccc(F)cc3s2)cc1

Source: ChEMBL document CHEMBL1773063, “Aromatic radiofluorination and biological evaluation of 2-aryl-6-[18F]fluorobenzothiazoles as a potential positron emission tomography imaging probe for β-amyloid plaques” (Bioorg Med Chem, 2011)
